Data on 38 compounds can be found in patent publication US20220324865A1 (Bayer Aktiengesellschaft, priority 2018, published 2022).

Structures are written as SMILES. Counter-ions that a name gives are not always drawn.

The assay has as its target T1, human EP3 receptor (Homo sapiens, UniProt P43115).
T1 construct: expressed in transfected cells; host or cells: CHO K1 (Chinese Hamster Ovary), stably co-transfected with Galpha16 and mitochondrial clytin
T1 sequence (P43115 1-390): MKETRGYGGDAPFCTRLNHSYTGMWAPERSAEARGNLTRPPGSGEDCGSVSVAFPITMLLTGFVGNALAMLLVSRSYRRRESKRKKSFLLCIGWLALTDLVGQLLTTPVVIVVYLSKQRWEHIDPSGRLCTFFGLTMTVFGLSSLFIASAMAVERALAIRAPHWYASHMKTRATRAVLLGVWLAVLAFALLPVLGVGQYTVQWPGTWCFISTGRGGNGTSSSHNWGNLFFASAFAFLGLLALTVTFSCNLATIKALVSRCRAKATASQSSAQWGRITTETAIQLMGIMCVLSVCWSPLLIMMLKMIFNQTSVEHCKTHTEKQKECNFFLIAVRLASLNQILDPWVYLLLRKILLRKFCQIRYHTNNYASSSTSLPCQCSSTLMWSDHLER
Briefly: Cellular in vitro assay for determining EP3 receptor activity (human EP3 cell line, sulprostone-stimulated calcium luminescence). Type of assay: cell-based. The following applies: CHO cells expressing human EP3 and mitochondrial Clytin; antagonist mode, sulprostone at EC50; read-out: EP3 CHO mtCLY ANTAG IC50. The gist of the method:
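Antagonist activity was measured as inhibition of the luminescent calcium signal elicited by EC50 sulprostone, following 10 min compound pretreatment. The cell line was recombinant CHO K1 co-expressing human EP3, Gα16 and the photoprotein Clytin, reconstituted with coelenterazine.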
In the case of `Cc1cc(-c2cn3nc(C(=O)NCCC(O)C(F)(F)F)c(C4CC4)c3c(=O)[nH]2)ccc1Cl` (racemic) [6-309], the half-inhibitory concentration (IC50) worked out at 1.13 nM. Under `COc1ccc(C2(NC(=O)c3cc4c(=O)[nH]c(-c5ccc(C)c(C)c5)cn4n3)CN(C(C)=O)C2)cc1` [Example 1-156, N-[1-Acetyl-3-(4-methoxyphenyl)azetidin-3-yl]-6-(3,4-dimethylphenyl)-4-oxo-5H-pyrazolo[1,5-a]-pyrazine-2-carboxamide] stands 3.05 nM. With `Cc1ccc(-c2cn3nc(C(=O)NCC(O)C(F)(F)F)c(C4CC4)c3c(=O)[nH]2)cc1C` (racemic) [6-435], the IC50 is 0.26 nM. Under `Cc1c(C(=O)N[C@H](C)c2ccc(F)cc2)nn2c(C)c(-c3ccc4ccccc4c3)[nH]c(=O)c12` [Example 1-23, N-[(1R)-1-(4-Fluorophenyl)ethyl]-3,7-dimethyl-6-(naphthalen-2-yl)-4-oxo-4,5-dihydropyrazolo-[1,5-a]pyrazine-2-carboxamide] stands 5.55 nM; under `COC[C@H](NC(=O)c1nn2cc(-c3ccc(Cl)c(C)c3)[nH]c(=O)c2c1C1CC1)c1ccccc1` [6-304], 0.65 nM; under `O=C(NCc1cc(F)cc(F)c1)c1cc2c(=O)[nH]c(-c3ccc4ccccc4c3)cn2n1` [Example 2-31, N-(3,5-Difluorbenzyl)-6-(2-naphthyl)-4-oxo-4,5-dihydropyrazolo[1,5-a]pyrazine-2-carboxamide], 2.55 nM. As for `Cc1cc(-c2cn3nc(C(=O)N[C@@H](C)C4CC4)c(C(C)C)c3c(=O)[nH]2)ccc1Cl` [6-608], the half-inhibitory concentration (IC50) was found to be 1.9 nM.

`C[C@H](CO)NC(=O)c1nn2cc(-c3ccc4ccccc4c3)[nH]c(=O)c2c1C(F)(F)F` [6-525]: the 50% inhibitory concentration (IC50) came to 7.8 nM.

In the case of `Cc1cccc2ncc(-c3cn4nc(C(=O)NC5CCc6ccccc65)c(C(C)C)c4c(=O)[nH]3)cc12` (centres unmarked) [Example 4-72, N-(2,3-Dihydro-1H-inden-1-yl)-3-isopropyl-6-(5-methylquinolin-3-yl)-4-oxo-4,5-dihydropyrazolo[1,5-a]pyrazine-2-carboxamide], the half-inhibitory concentration (IC50) came to 6.05 nM. Regarding `Cc1ccc(-c2cn3nc(C(=O)NCC(O)C(F)(F)F)c(C4CC4)c3c(=O)[nH]2)cc1F` (racemic) [Example 1-159, 3-Cyclopropyl-6-(3-fluoro-4-methylphenyl)-4-oxo-N-(3,3,3-trifluoro-2-hydroxpropyl)-4,5-dihydro-pyrazolo[1,5-a]pyrazine-2-carboxamide (racemate)], the IC50 stood at 2 nM. In the case of `Cc1cc(-c2cn3nc(C(=O)NC4(c5ccc(F)cc5)CN(CC(F)(F)F)C4)c(C(F)(F)F)c3c(=O)[nH]2)ccc1Cl` [6-237], the concentration for half-maximal inhibition (IC50) amounted to 1.9 nM. Under `Cc1cc(-c2cn3nc(C(=O)N[C@H](C)C(C)C)c(C4CC4)c3c(=O)[nH]2)ccc1C(F)(F)F` [Example 1-139, 3-Cyclopropyl-N-[(2R)-3-methylbutan-2-yl]-6-[3-methyl-4-(trifluoromethyl)phenyl]-4-oxo-4,5-dihydropyrazolo[1,5-a]pyrazine-2-carboxamide] stands 7.55 nM; under `C[C@H](NC(=O)c1nn2cc(-c3cc(Cl)c(Cl)cc3F)[nH]c(=O)c2c1C1CC1)C1CC1` [6-581], 1.6 nM; under `Cc1cc(-c2cn3nc(C(=O)NC4(c5ccc(F)cc5)CN(C5CC5)C4)c(C(F)(F)F)c3c(=O)[nH]2)ccc1Cl` [6-238], 1.4 nM.

With `Cc1ccc(-c2cn3nc(C(=O)NC(CO)C(F)(F)F)c(C(F)(F)F)c3c(=O)[nH]2)cc1Cl` (single isomer, unassigned) [6-163], the 50% inhibitory concentration (IC50) was 2.3 nM. Under `COc1cccc(C(CCO)NC(=O)c2nn3c(C)c(-c4ccc5ccccc5c4)[nH]c(=O)c3c2C)c1` (centres unmarked) [Example 3-39, N-[3-Hydroxy-1-(3-methoxyphenyl)propyl]-3,7-dimethyl-6-(2-naphthyl)-4-oxo-5H-pyrazolo[1,5-a]pyrazine-2-carboxamide] stands 1.8 nM. For `Cc1ccc(-c2cn3nc(C(=O)N[C@@H](c4ccc(F)cc4)C(C)(C)O)c(C4CC4)c3c(=O)[nH]2)c(F)c1F` [6-596] the value was 2.8 nM. In the case of `CC[C@@H](C)NC(=O)c1nn2cc(-c3ccc4ccccc4c3)[nH]c(=O)c2c1C(F)(F)F` [6-511], the half-maximal inhibitory concentration (IC50) was 0.59 nM. Under `O=C(N[C@@H](c1ccc(F)cc1)C(F)(F)CO)c1nn2cc(-c3ccc(Cl)c(F)c3)[nH]c(=O)c2c1C(F)F` [6-631] stands 8.55 nM. In the case of `Cc1cccc2ncc(-c3cn4nc(C(=O)NCc5cc[nH]n5)c(C(C)C)c4c(=O)[nH]3)cc12` [Example 4-14, 6-(5-Methylquinolin-3-yl)-4-oxo-3-(propan-2-yl)-N-[(1H-pyrazol-3-yl)methyl]-4,5-dihydropyrazolo[1,5-a]pyrazine-2-carboxamide], the IC50 was 2.5 nM. For `CC(C)(C)OC(=O)N1CC(C(NC(=O)c2cc3c(=O)[nH]c(-c4ccc5ccccc5c4)cn3n2)c2ccc(F)cc2)C1` (racemic) [Example 1-157, tert-Butyl 3-[(4-fluorophenyl)-[[6-(2-naphthyl)-4-oxo-5H-pyrazolo[1,5-a]pyrazine-2-carbonyl]amino]-methyl]azetidine-1-carboxylate (Racemate)] the value was 2.2 nM. Under `Cc1cc(-c2cn3nc(C(=O)N[C@H](C)C(C)C)c(C4CC4)c3c(=O)[nH]2)ccc1Cl` [6-336] stands 3.45 nM; under `Cc1cccc2ncc(-c3cn4nc(C(=O)NC(C)(C)c5cc(Cl)cc(Cl)c5)c(C(C)C)c4c(=O)[nH]3)cc12` [Example 4-8, N-[2-(3,5-Dichlorophenyl)propan-2-yl]-6-(5-methylquinolin-3-yl)-4-oxo-3-(propan-2-yl)-4,5-dihydropyrazolo[1,5-a]pyrazine-2-carboxamide], 4.3 nM. For `Cc1ccc(-c2cn3nc(C(=O)NC(c4ccc(F)cc4)C4(O)CC4)c(C4CC4)c3c(=O)[nH]2)cc1F` (single isomer, unassigned) [6-383] the value was 1.6 nM; for `O=C(NC1(c2ccc(F)cc2)COC1)c1cc2c(=O)[nH]c(-c3ccc4ccccc4c3)cn2n1` [6-56], 0.74 nM; for `CN(C)C[C@@H](NC(=O)c1cc2c(=O)[nH]c(-c3ccc4ccccc4c3)cn2n1)c1ccccc1` [Example 1-38, N-[(1S)-2-(Dimethylamino)-1-phenylethyl]-6-(naphthalen-2-yl)-4-oxo-4,5-dihydropyrazolo[1,5-a]-pyrazine-2-carboxamide formic acid salt], 4.09 nM. Turning to `O=C(N[C@@H]1CCN(CC(F)(F)F)C1)c1nn2cc(-c3ccc4ccccc4c3)[nH]c(=O)c2c1C(F)(F)F` (racemic) [6-521], the IC50 turned out to be 2.23 nM.

In the case of `Cc1cccc2ncc(-c3cn4nc(C(=O)N[C@H](CCO)c5ccccc5)cc4c(=O)[nH]3)cc12` [Example 1-114, N-[(1R)-3-Hydroxy-1-phenylpropyl]-6-(5-methylquinolin-3-yl)-4-oxo-4,5-dihydropyrazolo[1,5-a]-pyrazine-2-carboxamide], the IC50 was 3.15 nM. Under `Cc1cc(-c2cn3nc(C(=O)NC4(c5ccc(F)cc5)CN(C5CC5)C4)c(C4CC4)c3c(=O)[nH]2)ccc1Cl` [6-345] stands 1.55 nM; under `O=C(NC1(c2ccc(F)cc2)CC1)c1cc2c(=O)[nH]c(-c3ccc4ccccc4c3)cn2n1` [6-18], 1.75 nM; under `Cc1ccc(-c2cn3nc(C(=O)NC(CN(C)C)c4ccc(F)cc4)c(C4CC4)c3c(=O)[nH]2)cc1C` (single isomer, unassigned) [6-446], 8.05 nM. `C[C@@H](NC(=O)c1nn2cc(-c3cc(F)c(Cl)c(F)c3)[nH]c(=O)c2c1C1CC1)C1CC1` [6-473]: the half-inhibitory concentration (IC50) worked out at 3.3 nM. Under `Cc1ccc(-c2cn3nc(C(=O)NC4(c5ccc(F)cc5)CN(C)C4)c(C(F)(F)F)c3c(=O)[nH]2)cc1Cl` [Example 1-153, 6-(3-Chloro-4-methylphenyl)-N-[3-(4-fluorophenyl)-1-methylazetidin-3-yl]-4-oxo-3-(trifluoromethyl)-4,5-dihydropyrazolo[1,5-a]pyrazine-2-carboxamide] stands 5.4 nM; under `COc1ccccc1C(C)NC(=O)c1nn2c(C)c(-c3ccc4ccccc4c3)[nH]c(=O)c2c1C` (centres unmarked) [Example 3-28, N-[1-(2-Methoxyphenyl)ethyl]-3,7-dimethyl-6-(2-naphthyl)-4-oxo-5H-pyrazolo[1,5-a]pyrazine-2-carboxamide], 4.3 nM. For `Cc1ccc(-c2cn3nc(C(=O)NC4(c5ccc(F)cc5)CN(C)C4)cc3c(=O)[nH]2)cc1Cl` [6-123] the value was 5.63 nM; for `Cc1ccc(-c2cn3nc(C(=O)NC(CO)C(F)(F)F)c(C(F)(F)F)c3c(=O)[nH]2)cc1Cl` (single isomer, unassigned) [6-162], 9.55 nM; for `Cc1ccc(-c2cn3nc(C(=O)N[C@@H](c4ccc(F)cc4)C(C)(C)O)c(C)c3c(=O)[nH]2)c(F)c1F` [Example 1-163, 6-(2,3-Difluoro-4-methylphenyl)-N-[(1S)-1-(4-fluorophenyl)-2-hydroxy-2-methylpropyl]-3-methyl-4-oxo-4,5-dihydropyrazolo[1,5-a]pyrazine-2-carboxamide], 7.8 nM. For `CC[C@@H](C)NC(=O)c1nn2cc(-c3ccc(C(F)(F)F)c(C)c3)[nH]c(=O)c2c1C1CC1` [Example 1-138, N-[(2R)-Butan-2-yl]-3-cyclopropyl-6-[3-methyl-4-(trifluoromethyl)phenyl]-4-oxo-4,5-dihydropyrazolo[1,5-a]pyrazine-2-carboxamide] the value was 6.85 nM.
